The Ki is the equilibrium dissociation constant of an inhibitor or competing ligand from its target. A word on the IC50: it is the concentration needed to halve the response being measured. Higher therefore signals lower potency.

Assay [1] addresses T1, DNA-PK (Homo sapiens, UniProt P78527). Description: DNA-PK inhibition assay (radiometric 33P-ATP kinase assay). The class given is biochemical. Conditions: competitive tight-binding fit. The method, then:
Compounds were screened for their ability to inhibit DNA-PK kinase using a standard radiometric assay. Briefly, in this kinase assay the transfer of the terminal ^33P-phosphate in ^33P-ATP to a peptide substrate is interrogated. The assay was carried out in 384-well plates to a final volume of 50 μL per well containing approximately 6 nM DNA-PK, 50 mM HEPES (pH 7.5), 10 mM MgCl2, 25 mM NaCl, 0.01% BSA, 1 mM DTT, 10 μg/mL sheared double-stranded DNA (obtained from Sigma), 0.8 mg/mL DNA-PK peptide (Glu-Pro-Pro-Leu-Ser-Gln-Glu-Ala-Phe-Ala-Asp-Leu-Trp-Lys-Lys-Lys, obtained from American Peptide), and 100 μM ATP. Accordingly, compounds of the invention were dissolved in DMSO to make 10 mM initial stock solutions. Serial dilutions in DMSO were then made to obtain the final solutions for the assay. A 0.75 μL aliquot of DMSO or inhibitor in DMSO was added to each well, followed by the addition of ATP substrate solution containing ^33P-ATP (obtained from Perkin Elmer). The reaction was started by the addition of DNA-PK, peptide and ds-DNA. After 45 min, the reaction was quenched with 25 μL of 5% phosphoric acid. The reaction mixture was transferred to MultiScreen HTS 384-well PH plates (obtained from Millipore), allowed to bind for one hour, and washed three times with 1% phosphoric acid. Following the addition of 50 μL of Ultima Gold™ high efficiency scintillant (obtained from Perkin Elmer), the samples were counted in a Packard TopCount NXT Microplate Scintillation and Luminescence Counter (Packard BioScience). The Ki values were calculated using Microsoft Excel Solver macros to fit the data to the kinetic model for competitive tight-binding inhibition. In Tables 1 and 2 below, Ki of less than 0.001 micromolar for the inhibition of DNA-PK is indicated as “A”; Ki of equal to or greater than 0.001 micromolar and less than 0.01 micromolar for the inhibition of DNA-PK as “B”; Ki of equal to or greater than 0.01 micromolar and less than 0.1 micromolar for the inhibition of DNA-PK as “C”; Ki of equal to or greater than 0.1 micromolar and less than 1 micromolar for the inhibition of DNA-PK for “D”; and Ki of equal to or greater than 1 micromolar as “E.”

Assay [2] addresses T1, DNA-PK. The experiment in a line: DNA-PK cellular assay (pDNA-PK Ser2056 sandwich ELISA, NCS-induced DSBs). The note with it: pDNA-PK (Ser2056) in A549 cells, NCS 50 ng/ml, 15 minutes. The class given is cell-based. Details: endogenous in cells; host or cells: A549 (human NSCLC). The text has this: DNA-PK is recruited to and activated by double-strand breaks (DSB) in DNA and plays a critical role in the non-homologous end-joining (NHEJ) repair mechanism. Upon activation, DNA-PK undergoes rapid autophosphorylation at Ser2056. The measure of pDNA-PK (Ser2056) in response to DNA DSBs provides a cellular signaling assay to evaluate potential DNA-PK kinase inhibitors.
Neocarzinostatin (NCS) was used as a radiomimetic to induce DNA DSBs. The sandwich ELISA used the Meso Scale Discovery electrochemiluminescence technology platform which typically provides greater sensitivity than traditional ELISA formats.
A549 (human NSCLC) cells are plated at 25,000 cells/well in 100 uL of DMEM (Invitrogen cat #11995-040) supplemented with 1% Pen/Strep (Invitrogen cat #15070-063) and 10% FBS (Hyclone cat #SH30071.03HI) on black clear bottom 96 well plates (Costar #3904) and allowed to adhere overnight at 37° C. in 5% CO2. The following day, the compounds and NCS solutions are prepared by adding 100 ul of DMEM growth media per well in a Corning polypropylene V-bottom deep well plate (cat #3357). The HP Compound Dilution D300 instrument was used to add compounds to the appropriate wells using the setting logarithmic and 16-point titration singlet.
The DMEM NCS solution was prepared by adding NCS to DMEM media at 200 ng/ml (final assay concentration, 50 ng/ml). 100 ul of the DMEM/NCS solution is added to the wells with the compounds. 100 ul of this solution is then immediately added to the A549 cells. The cells are then incubated for 15 minutes at 37° C.
The complete lysis buffer is prepared by adding 1% Phosphatase inhibitor (Sigma cat #P2850) and 1% Protease Inhibitor (Sigma cat #P8340) to the Lanthascreen cellular assay lysis buffer (Invitrogen cat #PV5598). The media from the plate was removed by flicking and patting dry. 60 uL/well of the complete lysis buffer is added to each well. These plates are then incubated for at least 5 minutes in the lysis buffer at room temperature to ensure complete lysis. At this point the lysates can be transferred to prepared ELISA plates.
The prepared ELISA plates were prepared blocking the Mesoscale Goat-Anti-Mouse (GAM) plates with 150 uL/well of 3% Blocker A (Mesoscale cat #R93-BA) for one hour at room temperature with shaking. The capture antibody is prepared by diluting the mouse monoclonal anti-total DNA-PK (AbCAM cat #ab1832) to 3 ug/mL in 1% Blocker A. The blocked plates rinsed once with 200 uL D-PBS. The capture antibody (25 ul/well) was added to each well and allowed to incubate for an hour at room temperature while shaking. This was rinsed once with 200 ul D-PBS before adding 25 uL of the prepared cell lysate from the cell plates to the Mesoscale GAM ELISA plate. The lysate is then incubated on the plates for one hour at room temperature with shaking. The detection antibody (Epitomics rabbit anti-pS2056-DNA-PK) is prepared at a 1/1000 dilution (to a final concentration of 450 ng/mL) in 1% Blocker A. The GAM plates are washed once with 200 uL of D-PBS and then 25 uL/well of the detection antibody is added to the plate. This incubates for one hour at room temperature with shaking. The Sulfotag is prepared by adding Sulfo-Tag Goat-Anti-Rabbit antibody (Mesoscale cat #R32AB-1) at a 1/500 dilution (1 ug/mL) to 1% Blocker A. The GAM plates are washed with 200 uL of D-PBS and then 25 uL of the Sulfotag preparation is added to each well. Once the plates have been incubated with the final solution, the Sulfotag, for 1 hour, they are washed once with 200 uL of D-PBS. The 1× Read Buffer (Mesoscale cat #R32-TC) is made by diluting the 4× buffer in ddH20. 150 uL of 1× buffer is added to each well of the GAM plate and then the plate is read on the Sector Imager 2400. The readout (electrochemiluminescence) was plotted against the concentration of each compound and the IC50s were generated using Prism software (GraphPad Prism version 6.0e for Macintosh). […]
(ELISA stands for enzyme-linked immunosorbent assay.)

SMILES strings stand for the structures.

`Cc1ncc2c(O[C@H]3CC[C@@H](NC(=O)OC(C)(C)C)CC3)cc(N3CCOCC3)cc2n1` [Compound 10, tert-butyl N-[4-(2-methyl-7-morpholino-quinazolin-5-yl)oxycyclohexyl]carbamate] displayed a Ki at DNA-PK [1] (Table 1, 100 μM ATP) of 0.001 to 0.01 µM. On DNA-PK [2] (Table 1), this molecule displayed a concentration for half-maximal inhibition (IC50) of no less than 1000 nM.
On DNA-PK [1] (Table 1, 100 μM ATP), `O=C(N[C@H]1CC[C@@H](Oc2cc(N3CCOCC3)cc3ncncc23)CC1)C1CC1` [Compound 16, N-[4-(7-morpholinoquinazolin-5-yl)oxycyclohexyl]cyclopropanecarboxamide] registered a Ki of less than 0.001 µM. In addition, at DNA-PK [2] (Table 1), the IC50 was less than 100 nM.
Regarding `CC1(C(=O)N[C@H]2CC[C@@H](Oc3cc(N4CCOCC4)cc4ncncc34)CC2)CC1` [Compound 23, 1-methyl-N-((1s,4s)-4-((7-morpholinoquinazolin-5-yl)oxy)cyclohexyl)cyclopropane-1-carboxamide], the Ki on DNA-PK [1] (Table 1, 100 μM ATP) was less than 0.001 µM. Besides, the IC50 at DNA-PK [2] (Table 1) was less than 100 nM.
The like results for `Cc1nc2c(c(N[C@H]3CC[C@@H](Oc4cc(N5CCOCC5)cc5ncncc45)CC3)n1)OCC2` [Compound 1, 2-methyl-N-[4-(7-morpholinoquinazolin-5-yl)oxycyclohexyl]-6,7-dihydrofuro[3,2-d]pyrimidin-4-amine] were, in that order, less than 0.001 µM and less than 100 nM.
The like results for `Cc1nccc(N[C@H]2CC[C@@H](Oc3cc(N4CCOCC4)cc4ncnc(C#N)c34)CC2)n1` [Compound 4, 5-[4-[(2-methylpyrimidin-4-yl)amino]cyclohexoxy]-7-morpholino-quinazoline-4-carbonitrile] were, in that order, less than 0.001 µM and less than 100 nM.
With `COc1ccc(COc2cc(N3CCOCC3)cc3ncnc(OC)c23)cc1` [Compound 53, 4-[4-methoxy-5-[(4-methoxyphenyl)methoxy]quinazolin-7-yl]morpholine], the Ki at DNA-PK [1] (Table 2, 100 μM ATP) was 0.01 to 0.1 µM. This molecule had an IC50 against DNA-PK [2] (Table 2) of no less than 1000 nM.
Take `CNC(=O)c1ccnc(N[C@H]2CC[C@@H](Oc3cc(N4CCOCC4)cc4nc[nH]c(=O)c34)CC2)n1` [Compound 11, N-methyl-2-[[4-[(7-morpholino-4-oxo-3H-quinazolin-5-yl)oxy]cyclohexyl]amino]pyrimidine-4-carboxamide]: the inhibition constant Ki on DNA-PK [1] (Table 1, 100 μM ATP) was less than 0.001 µM. For the same molecule, the IC50 against DNA-PK [2] (Table 1) was no less than 1000 nM.
The like results for `O=C(N[C@H]1CC[C@@H](Oc2cc(N3CCOCC3)cc3ncncc23)CC1)c1ccncn1` [Compound 15, N-[4-(7-morpholinoquinazolin-5-yl)oxycyclohexyl]pyrimidine-4-carboxamide] were, in that order, less than 0.001 µM and less than 100 nM.
For `COc1ncnc2cc(N3CCOCC3)cc(O[C@H]3CC[C@@H](Nc4ccnc(C)n4)CC3)c12` [Compound 6, N-[4-(4-methoxy-7-morpholino-quinazolin-5-yl)oxycyclohexyl]-2-methyl-pyrimidin-4-amine], the Ki on DNA-PK [1] (Table 1, 100 μM ATP) was less than 0.001 µM. In addition, the 50% inhibitory concentration (IC50) at DNA-PK [2] (Table 1) is less than 100 nM.
The like results for `c1ncc2c(O[C@H]3CC[C@@H](Nc4ncnc5ccoc45)CC3)cc(N3CCOCC3)cc2n1` [Compound 17, N-[4-(7-morpholinoquinazolin-5-yl)oxycyclohexyl]furo[3,2-d]pyrimidin-4-amine] were, in that order, less than 0.001 µM and less than 100 nM.
The like results for `CNC(=O)c1ccnc(N[C@H]2CC[C@@H](Oc3cc(N4CCOCC4)cc4ncnc(OC)c34)CC2)n1` [Compound 9, 2-[[4-(4-methoxy-7-morpholino-quinazolin-5-yl)oxycyclohexyl]amino]-N-methyl-pyrimidine-4-carboxamide] were, in that order, less than 0.001 µM and less than 100 nM.
Molecule `COc1ccc(COc2cc(N3CCOCC3)cc3ncnc(C#N)c23)cc1` [Compound 55, 5-[(4-methoxyphenyl)methoxy]-7-morpholino-quinazoline-4-carbonitrile] came in with a Ki on DNA-PK [1] (Table 2, 100 μM ATP) of 0.001 to 0.01 µM. At DNA-PK [2] (Table 2), the IC50 was no less than 1000 nM.
On to `COCC(=O)N[C@H]1CC[C@@H](Oc2cc(N3CCOCC3)cc3ncncc23)CC1` [Compound 20, 2-methoxy-N-((1s,4s)-4-((7-morpholinoquinazolin-5-yl)oxy)cyclohexyl)acetamide], for which, on DNA-PK [1] (Table 1, 100 μM ATP), the Ki was 0.001 to 0.01 µM. This molecule also registered an IC50 against DNA-PK [2] (Table 1) of no less than 1000 nM.
For the molecule `Cc1nc2c(c(N[C@H]3CC[C@@H](Oc4cc(N5CCOCC5)cc5ncnc(C#N)c45)CC3)n1)OCC2` [Compound 2, 5-[4-[(2-methyl-6,7-dihydrofuro[3,2-d]pyrimidin-4-yl)amino]cyclohexoxy]-7-morpholino-quinazoline-4-carbonitrile], the Ki at DNA-PK [1] (Table 1, 100 μM ATP) is less than 0.001 µM. At DNA-PK [2] (Table 1), this molecule yielded an IC50 of less than 100 nM.
As for `CN1CCN(c2cc(N[C@H]3CC[C@@H](Oc4cc(N5CCOCC5)cc5ncncc45)CC3)ncn2)CC1` [Compound 14, 6-(4-methylpiperazin-1-yl)-N-[4-(7-morpholinoquinazolin-5-yl)oxycyclohexyl]pyrimidin-4-amine], at DNA-PK [1] (Table 1, 100 μM ATP), the inhibitory constant (Ki) was less than 0.001 µM. At DNA-PK [2] (Table 1), this molecule came in with an IC50 of less than 100 nM.

Values taken from patent US12005127B2, “DNA-PK inhibitors” (VERTEX PHARMACEUTICALS INCORPORATED, priority 2018, dated 2024).
